PubChem BioAssay AID1259407 (Chemical Carcinogenesis Research Information System (CCRIS), 2018)
The source made the active and inactive calls. How the calls were made is not given here.

Test system: CCRIS mutagenicity, Ames/micronucleus/aberration tests
Assay: CCRIS mutagenicity studies
[1] = Test System: AMES SALMONELLA TYPHIMURIUM, Strain/Indicator: TA1535, Metabolic Activation: NONE, Method: STANDARD PLATE
[2] = Test System: AMES SALMONELLA TYPHIMURIUM, Strain/Indicator: TA100, Metabolic Activation: NONE, Method: STANDARD PLATE

Question: Which mutagenic call (Test System: CHINESE HAMSTER V-79, Strain/Indicator: V-79/8-AZAGUANINE, Metabolic Activation: RAT, LIVER, S-15, PHENOBARBITAL, Method: STANDARD PLATE) does the source give for CN1CCN(N=O)CC1 here?
Answer: active; positive

Question: Which mutagenic call (Test System: AMES SALMONELLA TYPHIMURIUM, Strain/Indicator: TA1535, Metabolic Activation: HAMSTER, LIVER, S-9, AROCLOR 1254, Method: STANDARD PLATE) does the source give for COc1ccc(CN(C)N=O)cc1 here?
Answer: inactive; negative

Question: And the mutagenic call [1]?
Answer: inactive; negative

Question: What does the source list for Cc1ccc(C(C)C)c(O)c1?
Answer: mutagenic call (End Point: IN VITRO CHROMOSOMAL ABERRATIONS, Test System: SYRIAN HAMSTER EMBRYO (SHE) CELLS, Metabolic Activation: NONE): inactive; negative; toxic at 520 um; mutagenic call (End Point: IN VITRO CHROMOSOMAL ABERRATIONS, Test System: SYRIAN HAMSTER EMBRYO (SHE) CELLS, Metabolic Activation: RAT, LIVER, S-9): active; positive (structural changes); mutagenic call (End Point: In vitro micronucleus, Test System: Human peripheral lymphocytes): active; positive; mutagenic call (End Point: In vivo chromosomal aberrations, Test System: Bone marrow cells, Species: Rat, Strain/Sex: Sprague-Dawley/Male, Route: Intraperitoneal): active; positive (structural and numerical changes); mutagenic call (End Point: In vivo chromosomal aberrations, Test System: Human peripheral lymphocytes): active; positive (structural changes); mutagenic call (Test System: AMES SALMONELLA TYPHIMURIUM, Strain/Indicator: TA97, Metabolic Activation: NONE, Method: PREINCUBATION (20 MIN)): inactive; negative; mutagenic call (Test System: AMES SALMONELLA TYPHIMURIUM, Strain/Indicator: TA97, Metabolic Activation: S-9, Method: PREINCUBATION (20 MIN)): inactive; negative; mutagenic call (Test System: AMES SALMONELLA TYPHIMURIUM, Strain/Indicator: TA98, Metabolic Activation: NONE, Method: PREINCUBATION (20 MIN)): inactive; negative; mutagenic call (Test System: AMES SALMONELLA TYPHIMURIUM, Strain/Indicator: TA98, Metabolic Activation: S-9, Method: PREINCUBATION (20 MIN)): inactive; negative; mutagenic call (Test System: AMES SALMONELLA TYPHIMURIUM, Strain/Indicator: TA100, Metabolic Activation: NONE, Method: PREINCUBATION (20 MIN)): inactive; negative; mutagenic call (Test System: AMES SALMONELLA TYPHIMURIUM, Strain/Indicator: TA100, Metabolic Activation: S-9, Method: PREINCUBATION (20 MIN)): inactive; negative

Question: With COC(=O)c1cc2c(c3c1c([N+](=O)[O-])cc1c(OC)cccc13)OCO2 as the compound, how does the mutagenic call (Test System: AMES SALMONELLA TYPHIMURIUM, Strain/Indicator: TA98, Metabolic Activation: NONE, Method: STANDARD PLATE) read?
Answer: active; positive

Question: And the mutagenic call [2]?
Answer: active; positive

Question: What about the mutagenic call (Test System: AMES SALMONELLA TYPHIMURIUM, Strain/Indicator: TA102, Metabolic Activation: NONE, Method: STANDARD PLATE) of the same compound?
Answer: inactive; negative

Question: And the mutagenic call (Test System: AMES SALMONELLA TYPHIMURIUM, Strain/Indicator: TA1537, Metabolic Activation: NONE, Method: STANDARD PLATE)?
Answer: active; positive

Question: And the mutagenic call (Test System: AMES SALMONELLA TYPHIMURIUM, Strain/Indicator: TM677/8-AZAGUANINE, Metabolic Activation: NONE, Method: SUSPENSION/PLATE)?
Answer: inactive; negative

Question: Which mutagenic call (Test System: UDS RAT HEPATOCYTES, Strain/Indicator: THY INCORP, Metabolic Activation: NONE, Method: AUTORADIOGRAPHY) does the source give for CC/C1=C/[C@@H](C)[C@](C)(OC(C)=O)C(=O)OC/C2=C/CN(C)CC[C@@H](OC1=O)C2=O here?
Answer: active; positive

Question: Which mutagenic call (Test System: AMES SALMONELLA TYPHIMURIUM, Strain/Indicator: TA97, Metabolic Activation: NONE, Method: PREINCUBATION) does the source give for CC(C)CCOC(=O)CC(C)C here?
Answer: inactive; negative

Question: And the mutagenic call (Test System: AMES SALMONELLA TYPHIMURIUM, Strain/Indicator: TA97, Metabolic Activation: RAT, LIVER, S-9, AROCLOR 1254, Method: PREINCUBATION)?
Answer: inactive; negative

Question: What about the mutagenic call (Test System: AMES SALMONELLA TYPHIMURIUM, Strain/Indicator: TA102, Metabolic Activation: NONE, Method: PREINCUBATION) of the same compound?
Answer: inactive; negative

Question: What about the mutagenic call (Test System: AMES SALMONELLA TYPHIMURIUM, Strain/Indicator: TA102, Metabolic Activation: RAT, LIVER, S-9, AROCLOR 1254, Method: PREINCUBATION) of the same compound?
Answer: inactive; negative

Question: Which results are given for O=[N+]([O-])c1ccc2ccc3c4c(cc5ccc1c2c53)C=C[C@H](O)[C@H]4O?
Answer: mutagenic call (Test System: AMES SALMONELLA TYPHIMURIUM, Strain/Indicator: TA98, Metabolic Activation: NONE): active; positive; mutagenic call (Test System: AMES SALMONELLA TYPHIMURIUM, Strain/Indicator: TA98, Metabolic Activation: RAT, LIVER, S-9, AROCLOR 1254): active; positive; mutagenic call (Test System: CHINESE HAMSTER OVARY, Strain/Indicator: CHO-K1-BH4 (HGPRT), Metabolic Activation: NONE): inactive; negative; mutagenic call (Test System: CHINESE HAMSTER OVARY, Strain/Indicator: CHO-K1-BH4 (HGPRT), Metabolic Activation: RAT, LIVER, S-9, 3-METHYLCHOLANTHRENE): inactive; negative

Question: For O=S=O, which mutagenic call (End Point: IN VIVO CHROMOSOMAL ABERRATIONS, Test System: BONE MARROW CELLS, Species: MOUSE, Strain/Sex: KUNMING/MALE, FEMALE, Route: INHALATION) is on record?
Answer: active; positive; exposure up to 5 d not effective

Question: What does the source list for CCCN(N=O)C(N)=O?
Answer: mutagenic call [1]: active; positive; mutagenic call (Test System: CHINESE HAMSTER V-79, Strain/Indicator: V-79/6-THIOGUANINE, Metabolic Activation: NONE, Method: FLASK ASSAY): active; positive; mutagenic call (Test System: E. COLI B, Strain/Indicator: H/R30R, Metabolic Activation: NONE): active; positive; mutagenic call (Test System: E. COLI B, Strain/Indicator: HS30R, Metabolic Activation: NONE): active; positive; mutagenic call (Test System: E. COLI, Strain/Indicator: WP2, Metabolic Activation: NONE, Method: STANDARD PLATE): active; positive; mutagenic call (Test System: E. COLI, Strain/Indicator: WP2 UVRA, Metabolic Activation: NONE, Method: STANDARD PLATE): active; positive

Question: What does the source list for Cc1c(N)ccc(N=Nc2ccccc2)c1N?
Answer: mutagenic call (Test System: AMES SALMONELLA TYPHIMURIUM, Strain/Indicator: TA100, Metabolic Activation: HUMAN, LIVER, S-9, Method: PREINCUBATION): active; positive; mutagenic call (Test System: AMES SALMONELLA TYPHIMURIUM, Strain/Indicator: TA100, Metabolic Activation: RAT, LIVER, S-9, BETA-NAPHTHOFLAVONE, Method: PREINCUBATION): active; positive; mutagenic call (Test System: AMES SALMONELLA TYPHIMURIUM, Strain/Indicator: TA100, Metabolic Activation: RAT, LIVER, S-9, PHENOBARBITAL, Method: PREINCUBATION): active; positive; mutagenic call (Test System: AMES SALMONELLA TYPHIMURIUM, Strain/Indicator: TA100, Metabolic Activation: RAT, LIVER, S-9, Method: PREINCUBATION): active; positive; mutagenic call (Test System: UDS RODENT HEPATOCYTES, Strain/Indicator: THY INCORP, Metabolic Activation: NONE, Method: AUTORADIOGRAPHY): active; positive

Question: For c1ccc(-c2ccccc2OCC2CO2)cc1 (configuration not stated), which mutagenic call [2] is on record?
Answer: active; positive

Question: What about the mutagenic call [1] of the same compound?
Answer: active; positive
